Source: patent US20240041042A1, “1-(PYRIDYL)-5-AZINYLPYRAZOLE DERIVATIVES, AND THEIR USE FOR CONTROL OF UNDESIRED PLANT GROWTH” (Bayer Aktiengesellschaft, priority 2020, published 2024)
Where two headings read alike, the source gives them in different places.

How the values were obtained:
Assay type in all cases: in vivo
[1] = system: Matricaria inodora (MATIN); assay: Pre-emergence herbicidal action against MATIN; conditions: dosage 320 g/ha
Outline: (§1)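 Herbicide applied to soil before seedling emergence, at 600 l/ha spray volume with 0.5% additive and rates up to 320 g/ha. Evaluation: visual percentage effect, about 3 weeks later, greenhouse-grown pots compared with untreated ones.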

[2] = system: Lolium rigidum (LOLRI); assay: Post-emergence herbicidal action against LOLRI; conditions: dosage 80 g/ha
Outline: (§2)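 Greenhouse plants sprayed at the one-leaf stage, 2–3 weeks after sowing, with WP or EC formulations plus 0.5% additive at 600 l/ha water. Activity rated visually after about 3 weeks versus untreated controls (100% = dead, 0% = like control), at 320 g/ha or lower.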

[3] = system: Viola tricolor (VIOTR); assay: Pre-emergence herbicidal action against VIOTR
Outline: as §1

[4] = system: Echinochloa crus-galli (ECHCG); assay: Pre-emergence herbicidal action against ECHCG
Outline: as §1

[5] = system: Alopecurus myosuroides (ALOMY); assay: Post-emergence herbicidal action against ALOMY; conditions: visual rating about 3 weeks after treatment vs untreated controls (100% = plants have died, 0% = like control plants)
Outline: as §2

[6] = system: Polygonum convolvulus (POLCO); assay: Pre-emergence herbicidal action against POLCO
Outline: as §1

[7] = system: Oryza sativa (ORYSA); conditions: pre-emergence, 80 g/ha, crop plant compatibility, in comparison to untreated controls
Outline: (§3)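 Scoring: visual, % of untreated control, about 3 weeks after a pre-emergence application to the soil surface. Application used WP or EC formulations diluted in water with 0.5% additive at 600 l/ha; dosage levels are marked by suffixes a, b and c.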

[8] = system: Avena fatua (AVEFA); assay: Post-emergence herbicidal action against AVEFA; conditions: visual rating about 3 weeks after treatment
Outline: as §2

[9] = system: Avena fatua (AVEFA); assay: Pre-emergence herbicidal action against AVEFA; conditions: 320 g/ha, visual scoring after about 3 weeks vs untreated controls
Outline: as §1

[10] = system: Amaranthus retroflexus (AMARE); assay: Post-emergence herbicidal action against AMARE
Outline: as §2

[11] = system: Zea mays (ZEAMX); conditions: for Post-emergence action against ZEAMX in % (crop plant compatibility): 20 g/ha, effect in comparison to untreated controls; for Post-emergence action against ZEAMX in %: crop plant compatibility, 80 g/ha, effect vs untreated controls
Outline: (§4)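 Percent effect on the crop was judged by eye against untreated controls, where 0% means like control and 100% means dead plants. Plants had been sprayed post-emergence at the one-leaf stage and then kept under optimum greenhouse conditions for about 3 weeks.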

[12] = system: Oryza sativa (ORYSA); conditions: crop plant compatibility
Outline: as §4

[13] = system: Lolium rigidum (LOLRI); assay: Pre-emergence herbicidal action against LOLRI
Outline: as §1

[14] = system: Setaria viridis (SETVI); assay: Post-emergence herbicidal action against SETVI
Outline: as §2

[15] = system: Alopecurus myosuroides (ALOMY); assay: Pre-emergence herbicidal action against ALOMY; conditions: scored visually after about 3 weeks, 100% = plants have died
Outline: as §1

[16] = system: Amaranthus retroflexus (AMARE); assay: Pre-emergence herbicidal action against AMARE; conditions: visual scoring after about 3 weeks vs untreated controls
Outline: as §1

[17] = system: Setaria viridis (SETVI); assay: Pre-emergence herbicidal action against SETVI
Outline: as §1

[18] = system: Echinochloa crus-galli (ECHCG); assay: Post-emergence herbicidal action against ECHCG
Outline: as §2

[19] = system: Digitaria sanguinalis (DIGSA); assay: Pre-emergence herbicidal action against DIGSA
Outline: as §1

[20] = system: Digitaria sanguinalis (DIGSA); assay: Post-emergence herbicidal action against DIGSA; conditions: 80 g/ha, visual rating about 3 weeks after treatment
Outline: as §2

[21] = system: Pharbitis purpurea (PHBPU); assay: Pre-emergence herbicidal action against PHBPU
Outline: as §1

[22] = system: Matricaria inodora (MATIN); assay: Post-emergence herbicidal action against MATIN
Outline: as §2

[23] = system: Zea mays (ZEAMX); conditions: pre-emergence, 80 g/ha, crop plant compatibility, in comparison to untreated controls
Outline: as §3

[24] = system: Verconica persica (VERPE); assay: Pre-emergence herbicidal action against VERPE
Outline: as §1

[25] = system: Viola tricolor (VIOTR); assay: Post-emergence herbicidal action against VIOTR
Outline: as §2

[26] = system: Triticum aestivum (TRZAS); conditions: crop plant compatibility, 80 g/ha, effect vs untreated controls
Outline: as §4

[27] = system: Verconica persica (VERPE); assay: Post-emergence herbicidal action against VERPE
Outline: as §2

[28] = system: Abutilon theophrasti (ABUTH); assay: Post-emergence herbicidal action against ABUTH; conditions: visual rating about 3 weeks after treatment vs untreated controls (100% = plants have died, 0% = like control plants)
Outline: as §2

[29] = system: Polygonum convolvulus (POLCO); assay: Post-emergence herbicidal action against POLCO
Outline: as §2

[30] = system: Pharbitis purpurea (PHBPU); assay: Post-emergence herbicidal action against PHBPU
Outline: as §2

[31] = 80 g/ha, effect in comparison to untreated controls
[32] = 320 g/ha, visual rating about 3 weeks after treatment

SMILES: CCOC(=O)C(C)Oc1nn(-c2ccccn2)c(-c2ccc(F)nc2)c1C(F)(F)F (centres unmarked) [Example I-107]
- Pre-emergence action against MATIN in % [1]: 90%
- Post-emergence action against LOLRI in % [2]: 80%
- Pre-emergence action against VIOTR in % ([3]; 320 g/ha, Viola tricolor): 100%
- Pre-emergence action against ECHCG in % ([4]; dosage 320 g/ha): 100%
- Post-emergence action against ALOMY in % ([5]; 80 g/ha): 90%
- Pre-emergence action against POLCO in % ([6]; dosage 320 g/ha): 80%
- Pre-emergence action against ORYSA in % [7]: 10%
- Post-emergence action against AVEFA in % ([8]; 80 g/ha): 90%
- Pre-emergence action against AVEFA in % [9]: 80%
- Post-emergence action against AMARE in % ([10]; 80 g/ha, visual rating about 3 weeks after treatment vs untreated controls (100% = plants have died, 0% = like control plants)): 80%
- Post-emergence action against ZEAMX in % (crop plant compatibility) [11]: 20%
- Post-emergence action against ORYSA in % ([12]; 20 g/ha, effect vs untreated controls): 0%
- Post-emergence action against ORYSA in % [12, 31]: 10%
- Pre-emergence action against LOLRI in % ([13]; dosage 80 g/ha): 80%
- Pre-emergence action against LOLRI in % ([13]; dosage 320 g/ha): 100%
- Post-emergence action against SETVI in % ([14]; dosage 80 g/ha): 80%
- Pre-emergence action against ALOMY ([15]; 80 g/ha): 90%
- Pre-emergence action against ALOMY ([15]; 320 g/ha): 90%
- Pre-emergence action against AMARE in % ([16]; 320 g/ha): 100%
- Pre-emergence action against SETVI in % ([17]; dosage 320 g/ha): 100%

SMILES: N#CCOC(=O)COc1nn(-c2ncccc2F)c(-c2ccc(F)nc2)c1Br [Example I-30]
- Pre-emergence action against MATIN in % [1]: 90%
- Post-emergence action against ECHCG in % ([18]; dosage 80 g/ha): 80%
- Pre-emergence action against DIGSA in % ([19]; 80 g/ha, visual scoring after about 3 weeks vs untreated controls): 100%
- Pre-emergence action against DIGSA in % ([19]; dosage 320 g/ha): 100%
- Post-emergence action against DIGSA in % [20]: 90%
- Pre-emergence action against VIOTR in % ([3]; 320 g/ha, Viola tricolor): 100%
- Pre-emergence action against VIOTR in % ([3]; dosage 80 g/ha): 90%
- Pre-emergence action against ECHCG in % ([4]; dosage 320 g/ha): 100%
- Post-emergence action against ALOMY in % ([5]; 80 g/ha): 90%
- Pre-emergence action against PHBPU in % ([21]; dosage 320 g/ha): 90%
- Post-emergence action against MATIN in % ([22]; dosage 80 g/ha): 90%
- Pre-emergence action against POLCO in % ([6]; dosage 80 g/ha): 80%
- Pre-emergence action against POLCO in % ([6]; dosage 320 g/ha): 90%
- Pre-emergence action against ZEAMX in % [23]: 10%
- Pre-emergence action against AVEFA in % [9]: 100%
- Post-emergence action against ZEAMX in % (crop plant compatibility) [11]: 20%
- Post-emergence action against ZEAMX in % [11]: 20%
- Pre-emergence action against LOLRI in % ([13]; dosage 80 g/ha): 90%
- Pre-emergence action against LOLRI in % ([13]; dosage 320 g/ha): 100%
- Pre-emergence action against VERPE in % ([24]; dosage 320 g/ha): 90%
- Pre-emergence action against ALOMY ([15]; 80 g/ha): 100%
- Pre-emergence action against ALOMY ([15]; 320 g/ha): 100%
- Post-emergence action against VIOTR in % ([25]; 80 g/ha): 80%
- Pre-emergence action against AMARE in % ([16]; 80 g/ha): 100%
- Pre-emergence action against AMARE in % ([16]; 320 g/ha): 100%
- Pre-emergence action against SETVI in % ([17]; dosage 80 g/ha): 90%
- Pre-emergence action against SETVI in % ([17]; dosage 320 g/ha): 100%

SMILES: COC(=O)CCOC(=O)COc1nn(-c2ccccn2)c(-c2ccc(Cl)nc2)c1Cl [Example I-243]
- Pre-emergence action against DIGSA in % ([19]; dosage 320 g/ha): 80%
- Post-emergence action against MATIN in % ([22]; dosage 320 g/ha): 80%
- Pre-emergence action against ZEAMX in % [23]: 10%
- Post-emergence action against AMARE in % [10, 32]: 80%
- Post-emergence action against ZEAMX in % [11]: 0%
- Post-emergence action against ORYSA in % [12, 31]: 0%
- Post-emergence action against ORYSA in % ([12]; 320 g/ha, effect in comparison to untreated controls): 10%
- Post-emergence action against TRZAS in % [26]: 20%
- Post-emergence action against VERPE in % ([27]; 320 g/ha, VERPE): 80%
- Post-emergence action against VIOTR in % ([25]; 320 g/ha): 80%
- Pre-emergence action against AMARE in % ([16]; 80 g/ha): 80%
- Pre-emergence action against AMARE in % ([16]; 320 g/ha): 90%

SMILES: O=C(O)COc1nn(-c2nc(F)ccc2F)c(-c2ccc(F)nc2)c1Cl [Example I-337]
- Pre-emergence action against MATIN in % [1]: 90%
- Post-emergence action against ECHCG in % ([18]; dosage 80 g/ha): 80%
- Post-emergence action against ECHCG in % ([18]; dosage 320 g/ha): 90%
- Pre-emergence action against VIOTR in % ([3]; 320 g/ha, Viola tricolor): 100%
- Pre-emergence action against VIOTR in % ([3]; dosage 80 g/ha): 80%
- Pre-emergence action against ECHCG in % ([4]; dosage 80 g/ha): 80%
- Pre-emergence action against ECHCG in % ([4]; dosage 320 g/ha): 90%
- Post-emergence action against ALOMY in % ([5]; 80 g/ha): 90%
- Post-emergence action against ALOMY in % ([5]; 320 g/ha): 90%
- Pre-emergence action against PHBPU in % ([21]; dosage 80 g/ha): 80%
- Pre-emergence action against PHBPU in % ([21]; dosage 320 g/ha): 80%
- Pre-emergence action against POLCO in % ([6]; dosage 80 g/ha): 80%
- Pre-emergence action against POLCO in % ([6]; dosage 320 g/ha): 90%
- Pre-emergence action against ORYSA in % [7]: 20%
- Post-emergence action against AVEFA in % ([8]; 320 g/ha): 80%
- Pre-emergence action against AVEFA in % [9]: 90%
- Post-emergence action against AMARE in % [10, 32]: 80%
- Post-emergence action against ABUTH in % ([28]; 80 g/ha): 80%
- Post-emergence action against ABUTH in % ([28]; 320 g/ha): 80%
- Post-emergence action against ZEAMX in % [11]: 10%
- Post-emergence action against ORYSA in % [12, 31]: 20%
- Post-emergence action against POLCO in % ([29]; dosage 80 g/ha): 80%
- Post-emergence action against POLCO in % ([29]; dosage 320 g/ha): 80%
- Post-emergence action against VERPE in % ([27]; 320 g/ha, VERPE): 80%
- Post-emergence action against VERPE in % ([27]; dosage 80 g/ha): 80%
- Post-emergence action against PHBPU in % ([30]; dosage 80 g/ha): 90%
- Post-emergence action against PHBPU in % ([30]; dosage 320 g/ha): 90%
- Pre-emergence action against LOLRI in % ([13]; dosage 320 g/ha): 100%
- Post-emergence action against SETVI in % ([14]; dosage 320 g/ha): 80%
- Pre-emergence action against VERPE in % ([24]; dosage 80 g/ha): 90%
- Pre-emergence action against VERPE in % ([24]; dosage 320 g/ha): 90%
- Pre-emergence action against ALOMY ([15]; 80 g/ha): 80%
- Pre-emergence action against ALOMY ([15]; 320 g/ha): 90%
- Post-emergence action against VIOTR in % ([25]; 80 g/ha): 80%
- Post-emergence action against VIOTR in % ([25]; 320 g/ha): 80%
- Pre-emergence action against AMARE in % ([16]; 80 g/ha): 90%
- Pre-emergence action against AMARE in % ([16]; 320 g/ha): 90%
- Pre-emergence action against SETVI in % ([17]; dosage 80 g/ha): 90%
- Pre-emergence action against SETVI in % ([17]; dosage 320 g/ha): 100%
